Several values for one entry are separate records, joined by “and”; a condition that tells them apart may be missing. Equal values may be shown once.
Test system: K98450-129-R-PDC complex spheroid growth, percent test/control
Test: Anticancer human tumor K98450-129-R-PDC patient-derived colon adenocarcinoma cell line growth inhibition [RAS]
Conditions: for viability, T/C: stronger effect = lower value; active = viability on the fitted dose curve at most 10% of control; inactive = the rest
Summary of the method: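 Tumour cells grown as complex spheroids with HUVEC endothelial cells and mesenchymal stem cells, treated with RAS pathway inhibitor combinations. Each agent spans half-log steps from near clinical Cmax, or 10 microM where Cmax is unknown.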

[1] = curve of first compound, second compound 0.0316 µM
[2] = curve of first compound, second compound 0.1 µM
[3] = curve of first compound, second compound 0.316 µM
[4] = curve of first compound, second compound 1 µM
[5] = second compound 0.0316 µM, first compound 0.0316 µM
[6] = second compound 0.0316 µM, first compound 0.1 µM
[7] = second compound 0.1 µM, first compound 0.0316 µM
[8] = second compound 0.1 µM, first compound 0.1 µM
[9] = second compound 0.316 µM, first compound 0.0316 µM
[10] = second compound 0.316 µM, first compound 0.1 µM
[11] = second compound 1 µM, first compound 0.0316 µM
[12] = second compound 1 µM, first compound 0.1 µM
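Also: spheroids exposed to agents for seven days before the viability readout.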
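For viability, T/C in this document: luminescence used as a proxy for viable cell amount.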

CC(C)n1nc(-c2ccc3oc(N)nc3c2)c2c(N)ncnc21 + C=CC(=O)N1CCN(c2nc(OCC3CCCN3C)nc3c(F)c(-c4nc(N)cc(C)c4C(F)(F)F)c(Cl)cc23)C(C)C1
0.0015 µM: IC50 [2]
inactive: viability, T/C (second compound 0.00316 µM, first compound 0.000316 µM) 90.9% | viability, T/C (second compound 0.00316 µM, first compound 0.001 µM) 85.2% | viability, T/C (second compound 0.00316 µM, first compound 0.00316 µM) 87.9% | viability, T/C (second compound 0.00316 µM, first compound 0.01 µM) 82.4% | viability, T/C (second compound 0.00316 µM, first compound 0.0316 µM) 76.5% | viability, T/C (second compound 0.00316 µM, first compound 0.1 µM) 56.9% | viability, T/C (second compound 0.01 µM, first compound 0.000316 µM) 75.9% | viability, T/C (second compound 0.01 µM, first compound 0.001 µM) 78.9% | viability, T/C (second compound 0.01 µM, first compound 0.00316 µM) 75% | viability, T/C (second compound 0.01 µM, first compound 0.01 µM) 70% | viability, T/C (second compound 0.01 µM, first compound 0.0316 µM) 61.2% | viability, T/C (second compound 0.01 µM, first compound 0.1 µM) 51.6% | viability, T/C (second compound 0.0316 µM, first compound 0.000316 µM) 70.2% | viability, T/C (second compound 0.0316 µM, first compound 0.001 µM) 58.8% | viability, T/C (second compound 0.0316 µM, first compound 0.00316 µM) 62.3% | viability, T/C (second compound 0.0316 µM, first compound 0.01 µM) 52.3% | viability, T/C [5] 47.1% | viability, T/C [6] 40.5% | viability, T/C (second compound 0.1 µM, first compound 0.000316 µM) 54.7% | viability, T/C (second compound 0.1 µM, first compound 0.001 µM) 51% | viability, T/C (second compound 0.1 µM, first compound 0.00316 µM) 46.1% | viability, T/C (second compound 0.1 µM, first compound 0.01 µM) 44.3% | viability, T/C [7] 33.9% | viability, T/C [8] 27.2% | viability, T/C (second compound 0.316 µM, first compound 0.000316 µM) 38.8% | viability, T/C (second compound 0.316 µM, first compound 0.001 µM) 37% | viability, T/C (second compound 0.316 µM, first compound 0.00316 µM) 33.1% | viability, T/C (second compound 0.316 µM, first compound 0.01 µM) 30.9% | viability, T/C [9] 25.7% | viability, T/C [10] 20.1% | viability, T/C (second compound 1 µM, first compound 0.000316 µM) 29.1% | viability, T/C (second compound 1 µM, first compound 0.001 µM) 27.5% | viability, T/C (second compound 1 µM, first compound 0.00316 µM) 33.5% | viability, T/C (second compound 1 µM, first compound 0.01 µM) 25% | viability, T/C [11] 21.4% | viability, T/C [12] 17.6%
< 0.000316 µM: IC50 [3] | IC50 [4]
> 0.1 µM: IC50 (curve of first compound, second compound 0.00316 µM) | IC50 (curve of first compound, second compound 0.01 µM)
0.0178 µM: IC50 [1]

CCC(CC)c1cc(NC2CCC(N)C2)n2nccc2n1 (configuration not stated) + C#Cc1c(F)ccc2cc(O)cc(-c3ncc4c(N5CC6CCC(C5)N6)nc(OCC56CCCN5CC(F)C6)nc4c3F)c12
5.51 µM: IC50 [2]
5.43 µM: IC50 (curve of first compound, second compound 3.16 µM)
5.71 µM: IC50 [4]
6.08 µM: IC50 [1]
4.67 µM: IC50 (curve of first compound, second compound 10 µM)
6.22 µM: IC50 [3]
inactive: viability, T/C [5] 99.8% | viability, T/C [6] 102% | viability, T/C (second compound 0.0316 µM, first compound 0.316 µM) 103% | viability, T/C (second compound 0.0316 µM, first compound 1 µM) 106% | viability, T/C (second compound 0.0316 µM, first compound 3.16 µM) 93.7% | viability, T/C (second compound 0.0316 µM, first compound 10 µM) 16.3% | viability, T/C [7] 105% | viability, T/C [8] 108% | viability, T/C (second compound 0.1 µM, first compound 0.316 µM) 102% | viability, T/C (second compound 0.1 µM, first compound 1 µM) 98.3% | viability, T/C (second compound 0.1 µM, first compound 3.16 µM) 81.7% | viability, T/C (second compound 0.1 µM, first compound 10 µM) 16.9% | viability, T/C [9] 105% | viability, T/C [10] 117% | viability, T/C (second compound 0.316 µM, first compound 0.316 µM) 108% | viability, T/C (second compound 0.316 µM, first compound 1 µM) 97.7% | viability, T/C (second compound 0.316 µM, first compound 3.16 µM) 94.8% | viability, T/C (second compound 0.316 µM, first compound 10 µM) 20% | viability, T/C [11] 104% | viability, T/C [12] 99.8% | viability, T/C (second compound 1 µM, first compound 0.316 µM) 99.4% | viability, T/C (second compound 1 µM, first compound 1 µM) 101% | viability, T/C (second compound 1 µM, first compound 3.16 µM) 82.4% | viability, T/C (second compound 1 µM, first compound 10 µM) 19.1% | viability, T/C (second compound 3.16 µM, first compound 0.0316 µM) 91.7% | viability, T/C (second compound 3.16 µM, first compound 0.1 µM) 97.1% | viability, T/C (second compound 3.16 µM, first compound 0.316 µM) 94.9% | viability, T/C (second compound 3.16 µM, first compound 1 µM) 84.7% | viability, T/C (second compound 3.16 µM, first compound 3.16 µM) 79.1% | viability, T/C (second compound 3.16 µM, first compound 10 µM) 18.9% | viability, T/C (second compound 10 µM, first compound 0.0316 µM) 84.2% | viability, T/C (second compound 10 µM, first compound 0.1 µM) 90.2% | viability, T/C (second compound 10 µM, first compound 0.316 µM) 88.2% | viability, T/C (second compound 10 µM, first compound 1 µM) 89.4% | viability, T/C (second compound 10 µM, first compound 3.16 µM) 68.5% | viability, T/C (second compound 10 µM, first compound 10 µM) 14.1%

CCn1c(-c2cc(N3CCN(C)CC3)cnc2C(C)OC)c2c3cc(ccc31)-c1csc(n1)CC(NC(=O)C1CC1C)C(=O)N1CCCC(N1)C(=O)OCC(C)(C)C2 (configuration not stated)
inactive: viability, T/C (compound 0.000949 µM) 93.1% [middle of 8 runs] | viability, T/C (compound 0.003 µM) 86.4% [middle of 8 runs] | viability, T/C (compound 0.03 µM) 56.8% [middle of 8 runs] | viability, T/C (compound 0.0949 µM) 23.6% [middle of 8 runs] | viability, T/C (compound 0.3 µM) 14.1% [middle of 8 runs]
35 nM [middle of 8 runs]: IC50 (compound alone, run of 05/20/2024)

CC(C)n1nc(-c2ccc3oc(N)nc3c2)c2c(N)ncnc21
> 0.1 µM: IC50 (curve of compound)
inactive: viability, T/C (compound 0.000316 µM) 106% [middle of 4 runs] | viability, T/C (compound 0.001 µM) 90.9% [middle of 4 runs] | viability, T/C (compound 0.00316 µM) 93.6% [middle of 4 runs] | viability, T/C (compound 0.01 µM) 96.8% [middle of 4 runs] | viability, T/C (compound 0.0316 µM) 79.8% [middle of 4 runs] | viability, T/C (compound 0.1 µM) 78.4% (2×) and 86.4% and 72.6%

Reference: PubChem BioAssay AID2060891 (Molecular Pharmacology Branch, DTP, NCI, 2025)
